Laboratory results from US5604262A, “Topical antimicrobial agents” (Research Corporation Technologies, Inc., priority 1995, dated 1997).
Converted amounts (≈) assume the structure as drawn.

Legend:
[1] = tested on: Bacillus subtilis ATCC 9372; assay: MIC by two-fold serial broth dilution; format: cell-based; details: Bacillus subtilis, ATCC9372, 48 h; B. subtilis; NYG broth; two days, turbidity OD 660 nm
From the text: (§1) The microorganisms tested were from the American Type Culture Collection (Rockville, Md.). They are Bacillus subtilis ATCC 9372, Brevibacterium ammoniagenes ATCC 6872, Staphylococcus aureus ATCC 12598, Streptococus mutans ATCC 25175, Propionibacterium acnes ATCC 11827, Pseudimonas aeruginosa ATCC 10145, Enterobacter aerogenes ATCC 13048, Eschericia coli ATCC 9637, Proteus vulgaris ATCC […], Saccharomyces cerevisiae ATCC 7754, Candida utilis ATCC 9226, Pityrosporum ovale ATCC 14521, Penicillium chrysogenum ATCC 10106 and Trichophyton mentagrophytes ATCC 18748.
(§2) The bacterial culture media except for S. mutans was 0.8% nutrient broth (BBL), 0.5% yeast Extract (Difco) and 0.1% glucose (NYG broth). S. mutans was cultured in 3.7% brain heart infixsion broth (Difco). All fungi, except P. ovale and T. mentagrophytes were cultured in a 2.5% malt extract broth (BBL). P. ovale was cultured in 1% bactopeptone (Difco), 0.5% yeast extract, 1% glucose and 0.1% corn oil. For T. mentagrophytes the culture media was 1% bactopeptone and 4% glucose.
(§3) Freeze dried samples were prepared for testing as follows. B. subtilis, S. cerevisiae, C. utilis, and P. ovale, were shake-cultured for two days at 30° C. P. chrysogenum and T. mentagrophytes were shake-cultured for 5 days at 30° C. B. ammoniagenes and E. aerogenes were stationarily cultured at 30° C. S. aureus, S. mutans, P. acnes, P. aeruginosa, E. coli and P. vulgaris were stationarily cultured at 37° C.
(§4) The minimum inhibitory concentration (MIC) of the 3-alken-2-ones (compounds 1-4, 6-8) and 3,13-tetradecadien-2-one (compound 5) was performed using a two-fold serial broth dilution. Each test compound was dissolved in DMF and 30 μL of this sample was dissolved in 3 mL of the applicable medium. A 30 μL sample of the previously described culture of each microorganism was added to the various medium solutions. After two days, the cultures of B. subtilis, S. cerevisiae, C. utilis B. ammoniagenes, E. aerogenes, S. aureus, S. mutans, P. acnes, P. aeruginosa, E. coli and P. vulgaris were examined for turbidity (OD at 660 nm). The fungi, P. ovale, P. chrysogenum and T. mentagrophytes, were examined visually for growth at 3 days (P. ovale) and 5 days (P. chrysogenum and T. mentagrophytes). The MIC was determined as the lowest concentration for each compound that no growth was observed. The highest concentration used in these tests was 800 μg/mL.

[2] = tested on: Brevibacterium ammoniagenes ATCC 6872; assay: MIC by two-fold serial broth dilution; format: cell-based; details: Corynebacterium ammoniagenes, ATCC6872, 48 h; B. ammoniagenes; NYG broth; two days, turbidity OD 660 nm
From the text: as §1, §2, §3, §4

[3] = tested on: Enterobacter aerogenes ATCC 13048; assay: MIC by two-fold serial broth dilution; format: cell-based; details: Klebsiella aerogenes, ATCC13048, 48 h; E. aerogenes; NYG broth; two days, turbidity OD 660 nm
From the text: as §1, §2, §3, §4

[4] = tested on: Eschericia coli ATCC 9637; assay: MIC by two-fold serial broth dilution; format: cell-based; details: Escherichia coli, ATCC9637, 48 h; E. coli; NYG broth; two days, turbidity OD 660 nm
From the text: as §1, §2, §3, §4

[5] = tested on: Penicillium chrysogenum ATCC 10106; assay: MIC by two-fold serial broth dilution; format: cell-based; details: Penicillium chrysogenum, ATCC10106, 120 h; P. chrysogenum; malt extract broth; 5 days, visual
From the text: as §1, §2, §3, §4

[6] = tested on: Pityrosporum ovale ATCC 14521; assay: MIC by two-fold serial broth dilution; format: cell-based; details: 72 h; P. ovale; bactopeptone/yeast extract/glucose/corn oil; 3 days, visual
From the text: as §1, §2, §3, §4

[7] = tested on: Propionibacterium acnes ATCC 11827; assay: MIC by two-fold serial broth dilution; format: cell-based; details: P. acnes
From the text: as §1, §2, §3, §4

[8] = tested on: Proteus vulgaris ATCC 133315; assay: MIC by two-fold serial broth dilution; format: cell-based; details: ATCC133315, 48 h, P. vulgaris, NYG broth, two days, turbidity OD 660 nm
From the text: as §1, §2, §3, §4

[9] = tested on: Pseudimonas aeruginosa ATCC 10145; assay: MIC by two-fold serial broth dilution; format: cell-based; details: Pseudomonas aeruginosa, ATCC10145, 48 h; P. aeruginosa; NYG broth; two days, turbidity OD 660 nm
From the text: as §1, §2, §3, §4

[10] = tested on: Saccharomyces cerevisiae ATCC 7754; assay: MIC by two-fold serial broth dilution; format: cell-based; details: Saccharomyces cerevisiae, ATCC7754, 48 h; S. cerevisiae; malt extract broth; two days, turbidity OD 660 nm
From the text: as §1, §2, §3, §4

[11] = tested on: Staphylococcus aureus ATCC 12598; assay: MIC by two-fold serial broth dilution; format: cell-based; details: Staphylococcus aureus, ATCC12598, 48 h; S. aureus; NYG broth; two days, turbidity OD 660 nm
From the text: as §1, §2, §3, §4

[12] = tested on: Streptococus mutans ATCC 25175; assay: MIC by two-fold serial broth dilution; format: cell-based; details: Streptococcus mutans, ATCC25175, 48 h; S. mutans; brain heart infusion broth; two days, turbidity OD 660 nm
From the text: as §1, §2, §3, §4

[13] = tested on: Trichophyton mentagrophytes ATCC 18748; assay: MIC by two-fold serial broth dilution; format: cell-based; details: ATCC18748, 120 h, T. mentagrophytes, bactopeptone/glucose, 5 days, visual
From the text: as §1, §2, §3, §4

Candia utilis ATCC 9226 = assay: MIC by two-fold serial broth dilution; format: cell-based, Candida utilis; details: Williopsis jadinii, ATCC9226, 48 h; C. utilis; malt extract broth; two days, turbidity OD 660 nm
From the text: as §1, §2, §3, §4

[14] = tested on: bacteria and fungi in the test, except S. mutans and P. acnes; assay: MIC test, all bacteria and fungi except S. mutans and P. acnes; format: cell-based; details: all of the bacteria and fungi in the test
From the text: as §1, §2
Freeze dried samples were prepared for testing as follows. […]
The minimum inhibitory concentration (MIC) of the 3-alken-2-ones (compounds 1-4, 6-8) and 3,13-tetradecadien-2-one (compound 5) was performed using a two-fold serial broth dilution. […] The MIC was determined as the lowest concentration for each compound that no growth was observed. […]

Pr. acnes = details: Kubo et al. 1994; cited from earlier work
S. mutans = details: Kubo et al. 1993; cited from earlier work
[15] = background statement; cited from earlier work

With `CCCCCCCCCCCCC/C=C/C(C)=O` [Compound 8, (E)-3-Heptadecen-2-one] the MIC [1] was over 800 µg/mL, the MIC [2] was over 800 µg/mL and the MIC [3] was over 800 µg/mL. For the same molecule, the MIC [4] was over 800 µg/mL, the MIC [5] was over 800 µg/mL and the MIC [6] was over 800 µg/mL. For the same molecule, the MIC ([7]; Cutibacterium acnes, ATCC11827, 48 h, NYG broth, two days, turbidity OD 660 nm) was 3.13 µg/mL (≈ 0.0124 mM), the “activity (in words)” value [7] was “strong activity” and the MIC [8] was over 800 µg/mL. The MIC [9] was over 800 µg/mL, the MIC [10] was over 800 µg/mL and the MIC [11] was over 800 µg/mL. It also gave an MIC [12] of 800 µg/mL (≈ 3.17 mM), an MIC [13] of over 800 µg/mL and an MIC (Candia utilis ATCC 9226) of over 800 µg/mL. The “activity (in words)” value [14] was “inactive”.

In the case of `CC(C)=CCCC(C)=CCCC(C)=CCO` [farnesol], the “activity against Pr. acnes (in words)” value (Pr. acnes) is listed as “exhibited activity”.

For `CC(C)=CCCC(C)=CCCC(C)=CCCC(C)O` (centres unmarked) [farnesyl acetol], the “activity against Pr. acnes (in words)” value (Pr. acnes) is listed as “exhibited activity”.

For `CC(=O)CCC=C(C)CCC=C(C)CCC=C(C)C` [farnesylacetone], the “activity against Pr. acnes (in words)” value (Pr. acnes) is given as “inactive”.

For `CC(C)=CCCC(C)=CCCC(C)O` (centres unmarked) [geranylacetol], the “activity against Pr. acnes (in words)” value (Pr. acnes) is given as “exhibited activity”.

In the case of `CC(=O)/C=C/C1C(C)=CCCC1(C)C` (stereo not drawn) [α-ionone], the “antibacterial activity (in words)” value (S. mutans) is listed as “moderate antibacterial activity”.

In the case of `CC(=O)/C=C/C1=C(C)CCCC1(C)C` [β-ionone], the “antibacterial activity (in words)” value (S. mutans) is given as “moderate antibacterial activity”.

For ionone, the allergic skin reactions [15] is listed as “can cause allergic skin reactions”.
